Reference: patent publication US20220304992A1, “METHODS OF REJUVENATING AGED TISSUE BY INHIBITING 15-HYDROXYPROSTAGLANDIN DEHYDROGENASE (15-PGDH)” (The Board of Trustees of the Leland Stanford Junior …, priority 2019, published 2022)
Entries after “also recorded” stand apart in the source; their conditions may differ.

Assays:
[1] = system: atrogene and other transcript levels in aged muscles; experiment: Quantitative RT-PCR of treated aged muscle tissue; format: in vivo, mouse
Description: We isolated RNA from MuSCs using the RNeasy Micro Kit (Qiagen). For muscle samples, we snap froze the tissue in liquid nitrogen, homogenized muscles in Trizol (Invitrogen) using the FastPrep FP120 homogenizer (MP Biomedicals), and then isolated RNA. We reverse-transcribed cDNA from total mRNA from each sample using the SensiFAST™ cDNA Synthesis Kit (Bioline). We subjected cDNA to RT-PCR using SYBR Green PCR Master Mix (Applied Biosystems) or TaqMan Assays (Applied Biosystems) in an ABI 7900HT Real-Time PCR System (Applied Biosystems). We cycled samples at 95° C. for 10 min and then 40 cycles at 95° C. for 15 s and 60° C. for 1 min. To quantify relative transcript levels, we used 2-ΔΔCt to compare treated and untreated samples and expressed the results relative to Gapdh.
For SYBR Green qRT-PCR, we used the following primer sequences: Gapdh, 30 forward 5′-[…]-3′, reverse 5′-[…]-3′; Hpgd, forward 5′-[…] -3′, reverse 5′-[…]-3′; Ptger1, forward 5′ […]-3′, reverse 5′-[…]-3′, Ptger2, forward 5′-[…]-3′, reverse 5′-[…]-3′, Cox2, forward, 5′-[…]-3′, reverse 5′-[…]-3′; Fbxo32, forward 5′-[…]-3′, reverse 5′-[…]-3′. For murine senescence markers and senescence associated markers we used the previously described primers (6).
TaqMan Assays (Applied Biosystems) were used to quantify Pax7, Myh, p21, Ptger3 and Ptger4 in samples according to the manufacturer instructions with the TaqMan Universal PCR Master Mix reagent kit (Applied Biosystems). Transcript levels were expressed relative to Gapdh levels. For SYBR Green qPCR, Gapdh qPCR was used to normalize input cDNA samples. For Taqman qPCR, multiplex qPCR enabled target signals (FAM) to be normalized individually by their internal Gapdh signals (VIC).
We isolated RNA from MuSCs, myoblasts and myotubes using the RNeasy Kit (Qiagen). Muscle samples were snap frozen in liquid nitrogen, then homogenized in Trizol (Invitrogen) using the FastPrep FP120 homogenizer (MP Biomedicals) before isolating RNA. We reverse-transcribed cDNA from total mRNA from each sample using the SensiFAST™ cDNA Synthesis Kit (Bioline). We subjected cDNA to RT-PCR using SYBR Green PCR Master Mix (Applied Biosystems) or TaqMan Assays (Applied Biosystems) in an ABI 7900HT Real-Time PCR System (Applied Biosystems). […] To quantify relative transcript levels, we used 2-ΔΔCt to compare treated and untreated samples and expressed the results relative to Gapdh. […]
For murine senescence markers and senescence associated markers we used the previously described primers (2). TaqMan Assays (Applied Biosystems) were used to quantify p21, Mstn, Ptger3 and Ptger4 in samples according to the manufacturer instructions with the TaqMan Universal PCR Master Mix reagent kit (Applied Biosystems). […] Mitochondrial copy number was quantified by using method and primers described previously (14).

[2] = system: aged muscle transcriptome; experiment: RNA sequencing of vehicle and SW treated aged muscles; format: in vivo, mouse; details: SW 1 month
Description: For RNA-seq, RNA was isolated from muscle lysates using Trizol reagent (Thermoscientific) and purified using Qiagen RNAEasy kit from. Libraries were constructed from RNA with the TruSEQ RNA Library Preparation Kit v2 (Illumina) and sequenced to 30-40×10^6×75-bp reads per sample on a NextSeq 550 from the Stanford Functional Genomics Facility.
For the RNA-Seq analysis, the sequences were aligned against the Mus musculus genome (mm9) using STAR (16). RSEM was used for calling transcripts and calculating transcripts per million (TPM) values as well as total counts (17). A counts matrix containing the number of counts for each gene and each sample was obtained. This matrix was analyzed by DESeq2 to calculate statistical analysis of significance of genes between samples (18). […] Heatmaps were generated on normalized counts and plotted on Z-score across rows using Seaborn data visualization library in python. The data reported in this paper have been deposited in the Gene Expression Omnibus (GEO) database GSE149924.

SMILES: CCCC[S+]([O-])c1sc2nc(-c3cccs3)cc(-c3ccccc3)c2c1N (stereo not drawn) [SW033291, 2-(butylsulfinyl)-4-phenyl-6-(thiophen-2-yl)thieno[2,3-b]pyridin-3-amine]
- other aging, inflammatory and autophagy markers ([1]; aged mice, SW treatment): no significant changes
- Pgc1α mRNA level ([1]; aged muscles, SW treatment): restored to that seen in young muscles
- expression of Fbxo32 (Atrogin1) at the mRNA level ([1]; aged muscles, SW treatment): decreased expression
- expression of atrogenes (Atrogin-1, MuRF1, Musa1, Smart) and Traf6 by RT-qPCR ([1]; aged muscles, SW vs vehicle): diminished
- Hdac4 expression [2]: diminished
- components of mitochondria complexes I, II, IV and V of the electron transport chain [2]: markedly increased
- members of ubiquitin signaling pathways [2]: downregulated
- mitochondrial pathways (KEGG/GO enrichment of upregulated genes) [2]: strong enrichment
- expression of TGF-beta pathway genes (Mstn, Tgfb2, Acvr2a, Smad3) ([2]; listed as SW): decreased; also recorded: markedly reduced
